US11612586B2, “Indole regulation of antigen presenting cells” (THE TEXAS A&M UNIVERSITY SYSTEM, priority 2016, dated 2023)

Legend:
IL-12 = IL-12 production in BMDMs, intracellular staining, flow cytometry; assay type: cell-based, mouse
Description: BMDMs were treated with indole or DMF control for 18 hours or 4 hours, followed by stimulation with LPS (2 ug/ml or 250 ng/ml) for 4 hours in the presence of Golgiplug. BMDMs were then stained for intracellular TNF or IL-12 and analyzed by flow cytometry.
First, pro-inflammatory cytokine production in macrophages was investigated. […] In the DC study described herein, DCs were typically conditioned with indole during their development from bone marrow precursors in order to mimic the proximity of DC progenitor cells to indole in the intestinal microenvironment during development. […] BMDMs were treated for 18 hours with indole, followed by a 4 hour stimulation with either a very high (2 ug/ml) or low (250 ng/ml) dose of LPS.
Additionally, to determine if recently arrived macrophage precursors might also be affected, BMDMs were next treated for just 4 hours with indole, followed by a […] stimulation with the same LPS concentrations.
To address the question of indole and AhR dependence in macrophages, experiments using BMDMs derived from AhR-knockout mice were run alongside wild-type littermate controls. Specifically, flow cytometric analysis of BMDMs was performed on WT or AhR-KO mice and treated with indole or DMF control for 18 hours. BMDMs were stimulated for 4 hours with LPS (50 ng/ml) in the presence of Golgiplug, then stained for intracellular TNF (left panels) and IL-12 (right panels).
The inventors performed a series of assays where bone marrow derived macrophages (BMDMs), bone marrow derived dendritic cells (BMDCs), and splenic dendritic cells (splenic DCs), were exposed to a series of TDMMs, including indole, indole-3-acetate (I3AT), 5-hydroxyindole (5HI), and indole-3-pyruvate (I3P), as well as indole-3-carbinol (I3C; a plant derived compound) to be used for a positive control (1 mM for 24 hours). The BMDMs and BMDCs were stimulated with LPS for 4 hours and assayed at day 7 for expression of various pro-inflammatory cytokines. In a similar assay, the BMDMs and BMDCs were stimulated with LPS or CpG, respectively, for 15 minutes and assayed for pAKT and pERK signaling, which is a reflection of pro-inflammatory response.
Bone marrow was harvested as described above and cultured at a density of 1×10^6 cells in 10 ml complete media supplemented with 10 ng/ml M-CSF (Peprotech) in 100 mm×15 mm petri dishes. Media with cytokine was replenished on day 3. Adherent and semi-adherent cells were recovered on day 7, plated, and treated with indole prior to downstream experiments.

AhR = target: T1, AhR (Homo sapiens, UniProt P35869); conditions: cited from earlier work
T1 construct: host or cells: CaC-2 intestinal cells; yeast; a liver cancer cell line
T1 sequence (P35869 11-848): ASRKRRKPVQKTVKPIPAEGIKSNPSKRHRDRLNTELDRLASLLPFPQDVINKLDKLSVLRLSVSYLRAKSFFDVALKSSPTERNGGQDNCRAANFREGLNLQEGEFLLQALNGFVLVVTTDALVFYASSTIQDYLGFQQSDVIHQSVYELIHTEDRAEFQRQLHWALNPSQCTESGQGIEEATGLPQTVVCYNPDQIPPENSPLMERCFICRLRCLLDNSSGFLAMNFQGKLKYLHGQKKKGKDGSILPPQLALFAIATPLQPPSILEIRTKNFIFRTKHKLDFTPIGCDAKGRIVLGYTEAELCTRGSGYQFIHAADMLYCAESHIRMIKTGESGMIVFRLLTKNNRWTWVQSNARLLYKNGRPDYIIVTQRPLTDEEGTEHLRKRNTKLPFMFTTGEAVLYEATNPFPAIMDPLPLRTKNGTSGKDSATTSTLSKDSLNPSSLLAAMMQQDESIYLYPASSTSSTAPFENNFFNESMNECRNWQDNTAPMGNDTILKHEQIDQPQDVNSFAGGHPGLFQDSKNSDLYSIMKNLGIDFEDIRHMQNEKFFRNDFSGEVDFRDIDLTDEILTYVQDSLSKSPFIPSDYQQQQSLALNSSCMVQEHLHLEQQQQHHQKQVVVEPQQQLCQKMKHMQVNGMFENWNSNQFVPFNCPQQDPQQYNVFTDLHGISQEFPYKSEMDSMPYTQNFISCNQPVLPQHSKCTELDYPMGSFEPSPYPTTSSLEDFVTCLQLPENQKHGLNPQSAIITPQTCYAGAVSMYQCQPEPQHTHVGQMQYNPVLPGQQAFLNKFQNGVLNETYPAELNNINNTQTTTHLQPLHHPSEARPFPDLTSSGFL

Compound: c1ccc2[nH]ccc2c1 [Indole, indole]
- reduction of IL-12 production (IL-12; BMDMs from WT or AhR-KO mice, 1 mM indole 18 hours, LPS 50 ng/ml 4 hours): approximately 2 fold
- IL-12 (IL-12; BMDMs, 1 mM TDMM 24 hours, LPS 1 ug/ml 4 hours): ↓↓↓
- inhibition of IL-12 production (IL-12; BMDMs, 1 mM indole 18 hours, LPS 2 ug/ml or 250 ng/ml 4 hours): ~2 fold
- AhR activity in CaC-2 intestinal cells (AhR; previous finding of the inventors): antagonist
- AhR effect in a liver cancer cell line (AhR; previously reported): antagonistic
- AhR effect in yeast (AhR; previously reported): agonistic
